Reference: patent US20090036420A1, “BENZAMIDE DERIVATIVES AND THEIR USE FOR TREATING CNS DISORDERS” (priority 2007, published 2009)

molecular target: T1, TAAR1 (Mus musculus, UniProt Q923Y8); test: Radioligand binding assay on membranes of HEK293 cells stably expressing TAAR1; conditions: Ki value (μM) in mouse, radioligand [3H]-rac-2-(1,2,3,4-tetrahydro-1-naphthyl)-2-imidazoline 60 nM, 4° C., 30 min
T1 construct: expressed in transfected cells; host or cells: HEK293 cells (ATCC #CRL-1573), stably transfected with pIRESneo2 expression plasmid; membrane preparation
Method: The Expand High Fidelity PCR System (Roche Diagnostics) was used with 1.5 mM Mg^2+ and purified PCR products were cloned into pCR2.1-TOPO cloning vector (Invitrogen) following the instructions of the manufacturer. PCR products were subcloned into the pIRESneo2 vector (BD Clontech, Palo Alto, Calif.), and expression vectors were sequence verified before introduction in cell lines.
For the generation of stably transfected cell lines HEK293 cells were transfected with the pIRESneo2 expression plasmids containing the TAAR coding sequences (described above) with Lipofectamine 2000 (Invitrogen) according to the instructions of the manufacturer, and 24 hrs post transfection the culture medium was supplemented with 1 mg/ml G418 (Sigma, Buchs, Switzerland). After a culture period of about 10 d clones were isolated, expanded and tested for responsiveness to trace amines (all compounds purchased from Sigma) with the cAMP Biotrak Enzyme immunoassay (EIA) System (Amersham) following the non-acetylation EIA procedure provided by the manufacturer.
Cells at confluence were rinsed with ice-cold phosphate buffered saline without Ca^2+ and Mg^2+ containing 10 mM EDTA and pelleted by centrifugation at 1000 rpm for 5 min at 4° C. The pellet was then washed twice with ice-cold phosphate buffered saline and cell pellet was frozen immediately by immersion in liquid nitrogen and stored until use at −80° C. Cell pellet was then suspended in 20 ml HEPES-NaOH (20 mM), pH 7.4 containing 10 mM EDTA, and homogenized with a Polytron (PT 3000, Kinematica) at 10,000 rpm for 10 s. The homogenate was centrifuged at 48,000×g for 30 min at 4° C. and the pellet resuspended in 20 ml HEPES-NaOH (20 mM), pH 7.4 containing 0.1 mM EDTA (buffer A), and homogenized with a Polytron at 10,000 rpm for 10 s. The homogenate was then centrifuged at 48,000×g for 30 min at 4° C. and the pellet resuspended in 20 ml buffer A, and homogenized with a Polytron at 10,000 rpm for 10 s. Protein concentration was determined by the method of Pierce (Rockford, Ill.). […] Non-specific binding was defined as the amount of [^3H]-rac-2-(1,2,3,4-tetrahydro-1-naphthyl)-2-imidazoline bound in the presence of the appropriate unlabelled ligand (10 μM). Competing ligands were tested in a wide range of concentrations (10 pM-30 μM). […] Each experiment was performed in duplicate. All incubations were terminated by rapid filtration through UniFilter-96 plates (Packard Instrument Company) and glass filter GF/C, pre-soaked for at least 2 h in polyethylenimine 0.3%, and using a Filtermate 96 Cell Harvester (Packard Instrument Company). The tubes and filters were then washed 3 times with 1 ml aliquots of cold buffer B. Filters were not dried and soaked in Ultima gold (45 μl/well, Packard Instrument Company) and bound radioactivity was counted by a TopCount Microplate Scintillation Counter (Packard Instrument Company).

T1 sequence (Q923Y8 whole entry): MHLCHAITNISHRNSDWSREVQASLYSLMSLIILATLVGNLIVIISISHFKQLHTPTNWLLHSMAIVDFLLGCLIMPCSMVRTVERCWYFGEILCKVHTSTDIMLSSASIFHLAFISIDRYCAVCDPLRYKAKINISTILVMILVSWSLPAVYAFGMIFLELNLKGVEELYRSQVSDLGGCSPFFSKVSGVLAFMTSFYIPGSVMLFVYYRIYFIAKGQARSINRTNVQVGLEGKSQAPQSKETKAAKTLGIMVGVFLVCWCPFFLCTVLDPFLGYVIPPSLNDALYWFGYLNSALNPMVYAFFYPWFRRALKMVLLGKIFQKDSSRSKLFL

Row | Structure (SMILES) | Ki
1 | CCCNc1ncc(C(=O)Nc2cccc(Cl)c2)cc1Cl [Example 157, 5-Chloro-N-(3-chloro-phenyl)-6-propylamino-nicotinamide] | 0.011 µM
2 | COc1cccc(NC(=O)c2cnc(N3CCCCC3)c(Cl)c2)c1 [Example 206] | 0.0207 µM
3 | CCCCNc1ncc(C(=O)Nc2cccc(Cl)c2)cc1Cl [Example 158, 6-Butylamino-5-chloro-N-(3-chloro-phenyl)-nicotinamide] | 0.008 µM
4 | CC(C)c1cccc(NC(=O)c2ccc(N3CCCC3)c(C(F)(F)F)c2)c1 [Example 182, N-(3-Isopropyl-phenyl)-4-pyrrolidin-1-yl-3-trifluoro-methyl-benzamide] | 0.065 µM
5 | O=C(Nc1cccc(Cl)c1)c1cnc(N2CCC2)c(Cl)c1 [Example 162, 6-Azetidin-1-yl-5-chloro-N-(3-chloro-phenyl)-nicotinamide] | 0.042 µM

same assay, conditions: radioligand [3H]-rac-2-(1,2,3,4-tetrahydro-1-naphthyl)-2-imidazoline 60 nM, 4° C., 30 min, read-out: Ki value (μM) in mouse

Row | Structure (SMILES) | Ki
6 | O=C(Nc1ccccc1)c1ccc([N+](=O)[O-])c(C(F)(F)F)c1 [Example 219, 3-Trifluoromethyl-4-nitro-N-phenyl-benzamide] | 0.067 µM
7 | COc1cccc(NC(=O)c2cnc(N3CCC(C)CC3)c(Cl)c2)c1 [Example 207] | 0.0098 µM
8 | O=C(Nc1cccc(Br)c1)c1ccc(N2CCCC2)c(C(F)(F)F)c1 [Example 187, N-(3-Bromo-phenyl)-4-pyrrolidin-1-yl-3-trifluoro-methyl-benzamide] | 0.046 µM
9 | COc1cccc(NC(=O)c2ccc(N3CCC(C#N)CC3)c(C(F)(F)F)c2)c1 [Example 196, 4-(4-Cyano-piperidin-1-yl)-N-(3-methoxy-phenyl)-3-trifluoromethyl-benzamide] | 0.022 µM
10 | COc1cccc(NC(=O)c2ccc(N3CCCCCC3)c(C(F)(F)F)c2)c1 [Example 195, 4-Azepan-1-yl-N-(3-methoxy-phenyl)-3-trifluoromethyl-benzamide] | 0.011 µM
11 | CC(C)Oc1cccc(NC(=O)c2ccc(N3CCCC3)c(C(F)(F)F)c2)c1 [Example 183, N-(3-Isopropoxy-phenyl)-4-pyrrolidin-1-yl-3-trifluoro-methyl-benzamide] | 0.007 µM
12 | COc1cccc(NC(=O)c2ccc(NC(C)C)c([N+](=O)[O-])c2)c1 [Example 91, 4-Isopropylamino-N-(3-methoxy-phenyl)-3-nitro-benzamide] | 0.012 µM
13 | O=C(Nc1cccc(Cl)c1)c1ccc(Cl)c(Cl)c1 [Example 218, 3,3′,4-Trichlorobenzanilide] | 0.06 µM
14 | O=C(Nc1cccc(OC(F)F)c1)c1ccc(N2CCCC2)c(C(F)(F)F)c1 [Example 190, N-(3-Difluoro-methoxy-phenyl)-4-pyrrolidin-1-yl-3-trifluoro-methyl-benzamide] | 0.012 µM
15 | COc1cccc(NC(=O)c2ccc(N3CCCC3)c([N+](=O)[O-])c2)c1 [Example 93, N-(3-Methoxy-phenyl)-3-nitro-4-pyrrolidin-1-yl-benzamide] | 0.013 µM
16 | O=C(Nc1cccc(Cl)c1)c1cnc(N2CCCC2)c(Cl)c1 [Example 154, 5-Chloro-N-(3-chloro-phenyl)-6-pyrrolidin-1-yl-nicotinamide] | 0.014 µM
17 | COCCNc1ncc(C(=O)Nc2cccc(Cl)c2)cc1Cl [Example 153, 5-Chloro-N-(3-chloro-phenyl)-6-(2-methoxy-ethylamino)-nicotinamide] | 0.035 µM
18 | O=C(Nc1cccc(OC(F)(F)C(F)F)c1)c1ccc(N2CCCC2)c(C(F)(F)F)c1 [Example 192, 4-Pyrrolidin-1-yl-N-[3-(1,1,2,2-tetrafluoro-ethoxy)-phenyl]-3-trifluoro-methyl-benzamide] | 0.039 µM
19 | COc1cccc(NC(=O)c2ccc(N3CCC3)c([N+](=O)[O-])c2)c1 [Example 92, 4-Azetidin-1-yl-N-(3-methoxy-phenyl)-3-nitro-benzamide] | 0.029 µM
20 | O=C(Nc1cccc(Cl)c1)c1ccc(Cl)c(Cl)c1 [Example 283, 3,4-Dichloro-N-(3-chloro-phenyl)-benzamide] | 0.06 µM
21 | CC(=O)c1cccc(NC(=O)c2ccc(N3CCCC3)c(C(F)(F)F)c2)c1 [Example 184, N-(3-Acetyl-phenyl)-4-pyrrolidin-1-yl-3-tri-fluoromethyl-benzamide] | 0.026 µM
22 | COc1cccc(NC(=O)c2ccc(NCc3ccccc3)c(C(F)(F)F)c2)c1 [Example 147, 4-Benzylamino-N-(3-methoxy-phenyl)-3-trifluoromethyl-benzamide] | 0.005 µM
23 | COc1cccc(NC(=O)c2ccc(Br)c([N+](=O)[O-])c2)c1 [Example 42, 4-Bromo-N-(3-methoxy-phenyl)-3-nitro-benzamide] | 0.021 µM
24 | CNc1ncc(C(=O)Nc2cccc(Cl)c2)cc1Cl [Example 151, 5-Chloro-N-(3-chloro-phenyl)-6-methylamino-nicotinamide] | 0.096 µM

Results, then the compound that gave them:

Row | Ki | Structure (SMILES)
25 | 0.039 µM | CCNc1ncc(C(=O)Nc2cccc(Cl)c2)cc1Cl [Example 156, 5-Chloro-N-(3-chloro-phenyl)-6-ethylamino-nicotinamide]
26 | 0.024 µM | CCNc1ccc(C(=O)Nc2cccc(OC)c2)cc1[N+](=O)[O-] [Example 90, 4-Ethylamino-N-(3-methoxy-phenyl)-3-nitro-benzamide]
27 | 0.0543 µM | O=C(Nc1ccccc1)c1ccc(Cl)c(Cl)c1 [Example 319, 3,4-Dichloro-N-phenyl-benzamide]
28 | 0.029 µM | COc1cccc(NC(=O)c2ccc(Nc3ccccc3)c([N+](=O)[O-])c2)c1 [Example 97, N-(3-Methoxy-phenyl)-3-nitro-4-phenylamino-benzamide]
29 | 0.004 µM | COc1cccc(NC(=O)c2ccc(F)c(S(=O)(=O)N3CC(C)CC(C)C3)c2)c1 (racemic) [Example 167, (rac,meso)-3-(3,5-Dimethyl-piperidine-1-sulfonyl)-4-fluoro-N-(3-methoxy-phenyl)-benzamide]
30 | 0.016 µM | COc1cccc(NC(=O)c2ccc(N3CCC3)c(C(F)(F)F)c2)c1 [Example 140, 4-Azetidin-1-yl-N-(3-methoxy-phenyl)-3-trifluoromethyl-benzamide]
31 | 0.002 µM | COc1cccc(NC(=O)c2cnc(N3CCCC3)c(C(F)(F)F)c2)c1 [Example 179, N-(3-Methoxy-phenyl)-6-pyrrolidin-1-yl-5-trifluoromethyl-nicotinamide]
32 | 0.038 µM | COc1cccc(NC(=O)c2ccc(N3CCCCC3)c(C(F)(F)F)c2)c1 [Example 141, N-(3-Methoxy-phenyl)-4-piperidin-1-yl-3-trifluoromethyl-benzamide]
33 | 0.003 µM | COc1cccc(NC(=O)c2ccc(N3CCC(C(F)(F)F)CC3)c(C(F)(F)F)c2)c1 [Example 197, N-(3-Methoxy-phenyl)-3-trifluoromethyl-4-(4-trifluoromethyl-piperidin-1-yl)-benzamide]
34 | 0.054 µM | O=C(Nc1ccccc1)c1ccc(Cl)c(Cl)c1 [Example 217, 3,4-Dichloro-N-phenyl-benzamide]
35 | 0.098 µM | O=C(Nc1ccccc1)c1ccc(Cl)c(C(F)(F)F)c1 [Example 6, 4-Chloro-N-phenyl-3-trifluoromethyl-benzamide]
36 | 0.0017 µM | COc1cccc(NC(=O)c2cnc(N3CCC(C)CC3)c(C(F)(F)F)c2)c1 [Example 201]
37 | 0.077 µM | COCCNc1ccc(C(=O)Nc2cccc(OC)c2)cc1C(F)(F)F [Example 139, 4-(2-Methoxy-ethylamino)-N-(3-methoxy-phenyl)-3-trifluoromethyl-benzamide]
38 | 0.012 µM | COc1cccc(NC(=O)c2ccc(N3CCCCC3)c([N+](=O)[O-])c2)c1 [Example 94, N-(3-Methoxy-phenyl)-3-nitro-4-piperidin-1-yl-benzamide]
39 | 0.007 µM | COc1cccc(NC(=O)c2ccc(N3CC(C)CC(C)C3)c(C(F)(F)F)c2)c1 (racemic) [Example 194, (rac,meso)-4-(3,5-Dimethyl-piperidin-1-yl)-N-(3-methoxy-phenyl)-3-trifluoromethyl-benzamide]
40 | 0.022 µM | COc1cccc(NC(=O)c2ccc(NC(C)C)c(C(F)(F)F)c2)c1 [Example 149, 4-Isopropylamino-N-(3-methoxy-phenyl)-3-trifluoromethyl-benzamide]
